Here are results for 23 compounds from patent US7109193B2, “Tricyclic diazepines tocolytic oxytocin receptor antagonists” (Wyeth, priority 2001, dated 2006).

The inhibition is how much of the control response was suppressed.

The experiment deals with T1, human oxytocin receptor (Homo sapiens, UniProt P30559).
T1 construct: host or cells: CHO cells (pcDNA3.1 vector)
T1 sequence (P30559 1-389): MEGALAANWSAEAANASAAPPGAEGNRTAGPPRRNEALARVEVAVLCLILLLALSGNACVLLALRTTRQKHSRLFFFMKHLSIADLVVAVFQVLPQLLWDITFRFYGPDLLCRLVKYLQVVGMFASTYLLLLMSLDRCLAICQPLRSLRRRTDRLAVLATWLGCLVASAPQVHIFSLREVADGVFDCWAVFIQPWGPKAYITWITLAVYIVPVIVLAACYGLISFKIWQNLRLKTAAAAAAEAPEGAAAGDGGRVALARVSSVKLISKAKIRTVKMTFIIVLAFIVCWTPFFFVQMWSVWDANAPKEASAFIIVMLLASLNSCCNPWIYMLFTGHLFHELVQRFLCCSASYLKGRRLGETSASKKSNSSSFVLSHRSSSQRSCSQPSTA
As to the kind of experiment: Oxytocin binding in Chinese Hamster Ovary cell membranes expressing human oxytocin receptors. The note with it: 100 nM, CHO cell membranes, [3H]oxytocin, values without parentheses; for inhibition at 0.1 µM: read-out: OT % inhibition @ 100% nM.

On to `COc1cc(C(=O)N2Cc3ccc(C(=O)N4CC[C@@H](N(C)C)C4)n3Cc3ccccc32)ccc1-c1cccc2ccccc12` [Example 276, [(3R)-3-(Dimethylamino)pyrrolidinyl]{10-[3-methoxy-4-(1-naphthyl)benzoyl]-10,11-dihydro-5H-pyrrolo[2,1-c][1,4]benzodiazepin-3-yl}methanone], for which the “OT % inhibition @ 100% nM” value is recorded as 74%.

On to `COC(=O)c1ccc2c(c1)N(C(=O)c1ccc(-c3ccccc3C(F)(F)F)c(C)c1)Cc1cccn1C2` [Example 26, Methyl 10-{[2-methyl-2′-trifluoromethyl-[1,1′-biphenyl]-4-yl]carbonyl}-10,11-dihydro-5H-pyrrolo[2,1-c][1.4]benzodiazepine-8-carboxylate], for which the “OT % inhibition @ 100% nM” value was found to be 17%.

For the compound `COc1cccc(-c2cc(OC)c(C(=O)N3Cc4ccc(C(=O)NCCCn5ccnc5)n4Cc4ccccc43)cc2Cl)c1` [Example 130, 10-[(6-Chloro-3,3′-dimethoxy[1,1′-biphenyl]-4-yl)carbonyl]-N-[3-(1H-imidazol-1-yl)propyl]-10,11-dihydro-5H-pyrrolo[2,1-c][1,4]benzodiazepine-3-carboxamide], the inhibition at 0.1 µM stood at 46%.

In the case of `Cc1ccccc1-c1ccc(C(=O)N2Cc3ccc(C(=O)N4CCC(N5CCCC5)CC4)n3Cc3ccccc32)cc1C` [Example 138, {10-[(2,2′-Dimethyl[1,1′-biphenyl]-4-yl)carbonyl]-10,11-dihydro-5H-pyrrolo[2,1-c][1,4]benzodiazepin-3-yl}[4-(1-pyrrolidinyl)-1-piperidinyl]methanone], the inhibition at 0.1 µM came out at 95%.

Regarding `COc1cc(C(=O)N2Cc3ccc(C(=O)NCCN4CCCCC4)n3Cc3ccccc32)ccc1-c1ccccc1C` [Example 154, 10-[(2-Methoxy-2′-methyl[1,1′-biphenyl]4-yl)carbonyl]-N-[2-(1-piperidinyl)ethyl]-10,11-dihydro-5H-pyrrolo[2,1-c][1,4]benzodiazepine-3-carboxamide], the inhibition at 0.1 µM was determined as 54%.

For the compound `COc1ccccc1-c1ccc(C(=O)N2Cc3ccc(C(=O)N4CCC(N5CCCC5)CC4)n3Cc3ccccc32)cc1OC` [Example 145, {10-[(2,2′-Dimethoxy[1,1′-biphenyl]4-yl)carbonyl]-10,11-dihydro-5H-pyrrolo[2,1-c][1,4]benzodiazepin-3-yl}[4-(1-pyrrolidinyl)-l-piperidinyl]methanone], the “OT % inhibition @ 100% nM” value was 53%.

As to `Cc1cccc(N2CCN(C(=O)c3ccc4n3Cc3ccccc3N(C(=O)c3ccc(-c5ccccc5C(F)(F)F)c(C)c3)C4)CC2C)c1` (centres unmarked) [Example 5, [3-Methyl-4-(3-methyl-phenyl)-piperazin-1-yl]-[10-(2-methyl-2′-trifluoromethyl-[1,1′-biphenyl]-4-yl)carbonyl]-10,11-dihydro-5H-pyrrolo[2,1-c][1,4]benzodiazepin-3-yl-methanone], the “OT % inhibition @ 100% nM” value was determined as 24%.

On to `Cc1ccccc1-c1ccc(C(=O)N2Cc3ccc(C(=O)NCCN4CCCCC4)n3Cc3ccccc32)cc1C` [Example 150, 10-[(2,2′-Dimethyl[1,1′-biphenyl]-4-yl)carbonyl]-N-[2-(1-piperidinyl)ethyl]-10,11-dihydro-5H-pyrrolo[2,1-c][1,4]benzodiazepine-3-carboxamide], for which the inhibition at 0.1 µM is 75%.

For the compound `COc1cc(C(=O)N2Cc3ccc(C(=O)N4CCC(N5CCCCC5)CC4)n3Cc3ccccc32)ccc1-c1ccccc1C` [Example 116, {10-[(2-Methoxy-2′-methyl[1,1′-biphenyl]-4-yl)carbonyl]-10,11-dihydro-5H-pyrrolo[2,1-c][1,4]benzodiazepin-3-yl}[4-(1-piperidinyl)-1-piperidinyl]methanone], the inhibition at 0.1 µM came out at 84%.

Take `Cc1cc(C(=O)N2Cc3ccc(C(=O)NCCCN(C)C)n3Cc3ccccc32)ccc1-c1ccccc1C(F)(F)F` [Example 84, N-[3-(Dimethylamino)propyl]-10-{[2-methyl-2′-(trifluoromethyl)[1,1′-biphenyl]-4-yl]carbonyl}-10,11-dihydro-5H-pyrrolo[2,1-c][1 .4]benzodiazepine-3-carboxamide]: the “OT % inhibition @ 100% nM” value is on record as 48%.

As for `COc1cccc(-c2cc(OC)c(C(=O)N3Cc4ccc(C(=O)N5CCN(CCN6CCOCC6)CC5)n4Cc4ccccc43)cc2Cl)c1` [Example 212, {10-[(6-Chloro-3,3′-dimethoxy[1,1′-biphenyl]-4-yl)carbonyl]-10,11-dihydro-5H-pyrrolo[2,1-c][1,4]benzodiazepin-3-yl}{4-[2-(4-morpholinyl)ethyl]-1-piperazinyi}methanone], the “OT % inhibition @ 100% nM” value is listed as 95%.

`COc1cc(C(=O)N2Cc3ccc(C(=O)NCCCn4ccnc4)n3Cc3ccccc32)ccc1-c1cccc2ccccc12` [Example 131, N-[3-(1H-Imidazol-1-yl)propyl]-10-[3-methoxy-4-(1-naphthyl)benzoyl]-10,11-dihydro-5H-pyrrolo[2,1-c][1,4]benzodiazepine-3-carboxamide]: the inhibition at 0.1 µM turned out to be 26%.

Consider `COc1ccccc1-c1ccc(C(=O)N2Cc3ccc(C(=O)NCCN4CCCCC4)n3Cc3ccccc32)cc1C` [Example 149, 10-[(2′-Methoxy-2-methyl[1,1′-biphenyl]-4-yl)carbonyl]-N-[2-(1-piperidinyl)ethyl]-10,11-dihydro-5H-pyrrolo[2,1-c][1,4]benzodiazepine-3-carboxamide], for which the inhibition at 0.1 µM amounted to 75%.

For the compound `COc1cc(C(=O)N2Cc3ccc(C(=O)N4CCC(N5CCCC5)CC4)n3Cc3ccccc32)ccc1-c1ccccc1C` [Example 142, {10-[(2-Methoxy-2′-methyl[1,1′-biphenyl]-4-yl)carbonyl]-10,11-dihydro-5H-pyrrolo[2,1-c][1,4]benzodiazepin-3-yl}[4-(1-pyrrolidinyl)-1-piperidinyl]methanone], the inhibition at 0.1 µM amounted to 83%.

Consider `COc1ccccc1-c1ccc(C(=O)N2Cc3ccc(C(=O)N4CCC(N5CCCC5)CC4)n3Cc3ccccc32)cc1` [Example 140, {10-[(2′-Methoxy[1,1′-biphenyl]-4-yl)carbonyl]-10,11-dihydro-5H-pyrrolo[2,1-c][1,4]benzodiazepin-3-yl}[4-(1-pyrrolidinyl)-1-piperidinyl]methanone], for which the inhibition at 0.1 µM came to 87%.

`CN(C)CCCN(C)C(=O)c1ccc2n1Cc1ccccc1N(C(=O)c1ccc(-c3cccc4ccccc34)cc1Cl)C2` [Example 109, 10-[2-Chloro-4-(1-naphthyl)benzoyl]-N-[3-(dimethylamino)propyl]-N-methyl-10,11-dihydro-5H-pyrrolo[2,1-c][1,4]benzodiazepine-3-carboxamide]: the inhibition at 0.1 µM came to 49%.

Consider `Cc1cc(C(=O)N2Cc3ccc(C(=O)N4CCC(N5CCCCC5)CC4)n3Cc3ccccc32)ccc1-c1ccccc1C(F)(F)F` [Example 122, {10-[(2-Methyl-2′-(trifluoromethyl) -[1,1′-biphenyl]-4-yl)carbonyl]-10,11-dihydro-5H -pyrrolo[2,1-c][1,4]benzodiazepin-3-yl}[4-(1-piperidinyl)-1-piperidinyl]methanone], for which the inhibition at 0.1 µM stood at 77%.

For `COc1ccccc1-c1ccc(C(=O)N2Cc3ccc(C(=O)N(C)CCCN(C)C)n3Cc3ccccc32)cc1OC` [Example 107, 10-[(2,2′-Dimethoxy[1,1′-biphenyl]-4-yl)carbonyl]-N-[3-(dimethylamino)propyl]-N-methyl-10,11-dihydro-5H-pyrrolo[2,1-c][1,4]benzodiazepine-3-carboxamide], the inhibition at 0.1 µM came to 87%.

As to `COc1ccccc1-c1ccc(C(=O)N2Cc3ccc(C(=O)N4CCC[C@H]4CN4CCCC4)n3Cc3ccccc32)cc1` [Example 265, {10-[(2′-Methoxy[1,1′-biphenyl]-4-yl)carbonyl]-10,11-dihydro-5H-pyrrolo[2,1-c][1,4]benzodiazepin-3-yl}[(2S)-2-(1-pyrrolidinylmethyl)pyrrolidinyl]methanone], the “OT % inhibition @ 100% nM” value is given as 100%.

As to `COc1cc(C(=O)N2Cc3ccc(C(=O)N4CCC[C@H]4CN4CCCC4)n3Cc3ccccc32)ccc1-c1cccc2ccccc12` [Example 262, {10-[3-Methoxy-4-(1-naphthyl)benzoyl]-10,11-dihydro-5H-pyrrolo[2,1-c][1,4]benzodiazepin-3-yl}[(2S)-2-(1-pyrrolidinylmethyl)pyrrolidinyl]methanone], the “OT % inhibition @ 100% nM” value worked out at 76%.

On to `COc1cc(-c2ccccc2C)c(Cl)cc1C(=O)N1Cc2ccc(C(=O)NCCCn3ccnc3)n2Cc2ccccc21` [Example 129, 10-[(6-Chloro-3-methoxy-2′-methyl[1,1′-biphenyl]-4-yl)carbonyl]-N-[3-(1H-imidazol-1-yl)propyl]-10,11-dihydro-5H-pyrrolo[2,1-c][1,4]benzodiazepine-3-carboxamide], for which the inhibition at 0.1 µM stood at 52%.

In the case of `Cc1ccccc1-c1ccc(C(=O)N2Cc3ccc(C(=O)NCCCn4ccnc4)n3Cc3ccccc32)cc1` [Example 127, N-[3-(1H-Imidazol-1-yl)propyl]-10-[(2′-methyl[1,1′-biphenyl]-4-yl)carbonyl]-10,11-dihydro-5H-pyrrolo[2,1-c][1,4]benzodiazepine-3-carboxamide], the inhibition at 0.1 µM was determined as 29%.

As to `COc1cc(C(=O)N2Cc3ccc(C(=O)N4CCC[C@H]4CN4CCCC4)n3Cc3ccccc32)ccc1-c1ccccc1Cl` [Example 33, {[10-(2-Methoxy)-2′-chloro-[1,1′-biphenyl]-4-yl]carbonyl}-[(2S)-[(2-pyrrolidin-1-yl)methyl]pyrrolidin-1-yl]-10,11-dihydro-5H-pyrrolo[2,1-c][1,4]benzodiazepin-3-yl-methanone], the “OT % inhibition @ 100% nM” value turned out to be 101%.
